From publication PMC9784828, “Antimicrobial Activity of Peptide-Coupled Antisense Peptide Nucleic Acids in Streptococcus pneumoniae” (Microbiology Spectrum, 2022)

Tests used:
[1] = tested on: ply (pneumolysin) transcript; experiment: RT-qPCR, relative expression of virulence gene ply; type: cell-based, Streptococcus pneumoniae; settings: TIGR4; 10 μM CPP-anti-rpoB PNA; normalised to 5S rRNA; n = 3
Description: (§1) Because the product of rpoB is the β-subunit of the bacterial RNA-polymerase, which is responsible for RNA synthesis, downregulation of rpoB by treatment with antisense PNAs is expected to affect gene expression. Therefore, we tested the relative expression of two virulence factor genes following treatment with 10 μM CPP-anti-rpoB PNAs compared to expression in the mock-treated control as an example (Fig. 3C and D).
(§2) For RNA isolation, 450 μL bacterial suspension (10^5 CFU/mL in BHI) was prepared for each experimental condition, treated with CPP-PNA conjugates as indicated, and incubated in a 2-mL reaction tube for 6 h at 37°C and 7 rpm (Rotor SB3; Stuart, Staffordshire, United Kingdom). Subsequently, five samples per condition were pooled. Bacteria were pelleted immediately, shock-frozen in liquid nitrogen, and stored at −80°C until use. Total RNA was extracted according to the protocol published by Li-Korotky et al. ([46]). […]
(§3) cDNA synthesis was performed using the Superscript First-Strand Synthesis system for RT-qPCR (Invitrogen, Thermo Fisher Scientific, Darmstadt, Germany). Quantitative PCR amplification was conducted with SYBR Green (Thermo Fisher Scientific) using the LightCycler 480 real-time PCR system (Roche Diagnostics GmbH, Mannheim, Germany). […] Relative expression was calculated using the 2^–ΔΔ^CT method ([27]). […]

rpoB mRNA = experiment: RT-qPCR, relative expression of rpoB; type: cell-based, Streptococcus pneumoniae; settings: TIGR4; 10 μM CPP-anti-rpoB PNA; 6 h; normalised to 5S rRNA; n = 3
Description: We investigated the influence of treatment with CPP-conjugated antisense PNAs on the amount of target gene mRNA in S. pneumoniae using reverse transcription-quantitative PCR (RT-qPCR) (Fig. 3). S. pneumoniae strain TIGR4 was treated with a sublethal dose (log CFU reduction of <2) of CPP-PNA conjugates. Transcript abundance of the 5S rRNA gene was used for normalization ([27]). Target gene mRNA levels in mock-treated bacteria served as controls. Treatment with 7.5 μM CPP-anti-gyrA PNAs and 10 μM CPP-anti-rpoB PNAs led to significant reductions in the respective target gene transcripts compared to the untreated control sample (Fig. 3).
For RNA isolation, 450 μL bacterial suspension (10^5 CFU/mL in BHI) was prepared for each experimental condition, treated with CPP-PNA conjugates as indicated, and incubated in a 2-mL reaction tube for 6 h at 37°C and 7 rpm (Rotor SB3; Stuart, Staffordshire, United Kingdom). Subsequently, five samples per condition were pooled. […]
as §3

[2] = tested on: pspA (pneumococcal surface protein A) transcript; experiment: RT-qPCR, relative expression of virulence gene pspA; type: cell-based, Streptococcus pneumoniae; settings: TIGR4; 10 μM CPP-anti-rpoB PNA; normalised to 5S rRNA; n = 3
Description: as §1, §2, §3

[3] = tested on: G. mellonella larvae infected with S. pneumoniae TIGR4; experiment: G. mellonella infection model, bacterial load; type: in vivo, Galleria mellonella; settings: 10 nmol CPP-PNA/larva; 24 h postinfection; n = 4 larvae per group, three experiments
Description: To establish the antibacterial effect of PNAs in the invertebrate infection model, we assessed the bacterial loads in infected larvae (Fig. 6). Larvae were infected and subsequently treated with NaCl (mock), 10 nmol CPP-PNA, or levofloxacin (positive control), respectively. From each group, four larvae were homogenized at 24 h postinfection. CFU/larva were determined following serial dilutions of the suspension and plating on selective medium. Treatment with (RXR)4XB-anti-gyrA caused a log CFU reduction of 1 compared to that in the mock-treated larvae. The addition of 1 or 10 μg levofloxacin led to a log CFU reduction of 2 or 6, respectively.
For determination of bacterial load, larvae were infected and subsequently treated with NaCl (mock), CPP-PNAs, or levofloxacin (positive control). At 24 h after infection, larvae were homogenized. Following serial dilution, the suspension was plated on selective medium (BD Columbia CNA Agar with 5% sheep blood; Becton Dickinson GmbH, Heidelberg, Germany). Agar plates were incubated overnight at 37°C, 5% CO2. CFU/larva was determined by visual inspection. Colony identity was verified on a random basis by colony PCR using ply-specific primers.

S. pneumoniae TIGR4 = experiment: In vitro time-killing assay (killing kinetics); type: cell-based, Streptococcus pneumoniae; settings: 10 μM, n = 3
Description: The antimicrobial activity kinetics of TAT- and (RXR)4XB-conjugated anti-gyrA PNA constructs in S. pneumoniae TIGR4 were studied using an in vitro time-killing assay. Bacteria were treated with 10 μM CPP-antisense PNAs or scrambled control PNAs (Fig. 2). Samples were collected every 2 h following antisense treatment. CFU/mL was determined by plating of serial dilutions and plotted over time. […] In contrast, (RXR)4XB-conjugated anti-gyrA PNA treatment led to a continuous reduction in S. pneumoniae CFU until complete eradication after 12 h.
For monitoring of killing kinetics, samples were collected 2 to 12 h post-treatment. Viable cell counts were determined by plating appropriate dilutions on BHI agar plates. CFU were determined by visual inspection following overnight incubation at 37°C under a 5% CO2 atmosphere. At time point 0, the viable cell count corresponded to 1 × 10^5 to 3 × 10^5 CFU/mL.

Row | Substance | Expression of ply relative to mock-treated control [1] [%] | rpoB transcript level relative to mock-treated control (rpoB mRNA) [%] | Expression of pspA relative to mock-treated control [2] | log CFU reduction of bacterial load compared to mock-treated larvae [3] | Time to complete eradication of S. pneumoniae CFU (S. pneumoniae TIGR4) [h]
1 | RXRRXRRXRRXRXB-eg-ctgccaagatga [(RXR)4XB-anti-rpoB PNA, (RXR)4XB peptide coupled to antisense PNA against rpoB] | 56 | 51 | no significant reduction |  | 
2 | GRKKRRQRRRYK-eg-ctgccaagatga [TAT-anti-rpoB PNA, HIV-1 TAT (48–57) peptide coupled to antisense PNA against S. pneumoniae rpoB] | 45 | 45 | 57% |  | 
3 | RXRRXRRXRRXRXB-eg-tgcattaata [(RXR)4XB-anti-gyrA PNA, (RXR)4XB peptide coupled to antisense PNA against gyrA] |  |  |  | 1 | 12
